In patent US20260055097A9, “NRF2 PROTEIN DEGRADERS” (Ganymede Oncology, Inc., priority 2022, published 2026):

Test system: various cancer cell lines
Test: Cancer cell testing, inhibitory activity in various cancer cell lines (CellTiter-Glo, 72 hours)
Assay type: cell-based
Experimental: The inhibitory activity of representative Compounds of the Disclosure was tested in various cancer cell lines according to the following protocol.
Cells were harvested from flasks into cell culture media and cell numbers were counted. Cells were then diluted with culture medium to the desired density, and 40 μL of cell suspension were added into each well of a 384-well cell culture plate (Corning, #3764). Plates were covered with lids and placed at room temperature for 30 minutes without shaking, and then transferred into a 37° C. 5% CO2 incubator.
Cpd. Nos. 30 and 34 were dissolved in DMSO to form a 10 mM stock solution. Paclitaxel as the control compound was dissolved in DMSO to form a 0.33 mM stock solution. 45 μL of stock solution was transferred to a 384 pp-plate and 3-fold, 10-point dilutions were performed by transferring 15 μL of compound into 30 μL of DMSO using a TECAN (EVO200) liquid handler. Plates were spun at room temperature at 1,000 RPM for 1 minute, and shaken at a plate shaker for 2 minutes. […] of diluted compound were transferred from compound source plate into the cell plate. After compound treatment for 72 hours, CTG detection was performed for compound treatment plates as described in the “Detection” section.
CellTiter Glo reagents were thawed and equilibrated to room temperature before the experiment. Plates were removed from incubators and equilibrated at room temperature for 15 minutes. 40 μL of CellTiter-Glo reagent was added to each well to be detected at 1:1 to culture medium. Then, plates were placed at room temperature for 30 min followed by reading on Ensight.
Inhibition activity was calculated following the formula below:
[formula] • HC: 0.3% DMSO, LC: 1 μM Paclitaxel
IC50S were calculated by fitting the Curve using Xlfit (v5.3.1.3) according to the following equation: […]

[1] = HCC15, HCC-15, LUNG, KEAP1 p.G364C
[2] = HEC59, UTERINE/ENDOMETRIAL, NRF2 p.N329D
[3] = HEC151, UTERINE/ENDOMETRIAL, KEAP1 p.A34S, NRF2 p.L23GfsTer5
[4] = HEC-251, HEC251, UTERINE/ENDOMETRIAL, KEAP1 p.Q227R, NRF2 p.K516T
[5] = HEC-265, UTERINE/ENDOMETRIAL, KEAP1 p.R483C
[6] = HO1U1, HEAD & NECK, NRF2 p.E82D
[7] = Homo sapiens, A549, A549, LUNG, KEAP1 p.G333C
[8] = Homo sapiens, COR-L88, CORL88, LUNG, NRF2 p.Q26P
[9] = Homo sapiens, EBC-1, EBC1, LUNG, NRF2 p.D77V
[10] = Homo sapiens, HCC44, HCC44, UTERINE/ENDOMETRIAL, KEAP1 p.F211C
[11] = Homo sapiens, HCC95, HCC-95, LUNG, no KEAP1/NRF2 mutation listed
[12] = Homo sapiens, HEC-1-A, HEC1A, UTERINE/ENDOMETRIAL, KEAP1 p.Y33C, NRF2 G31R
[13] = Homo sapiens, HEC-1B, HEC1B, UTERINE/ENDOMETRIAL, NRF2 p.G31R
[14] = Homo sapiens, KYSE-70, KYSE70, ESOPHAGEAL, NRF2 p.W24C
[15] = Homo sapiens, KYSE-180, KYSE180, ESOPHAGEAL, NRF2 p.P278Q
[16] = Homo sapiens, KYSE-520, KYSE520, ESOPHAGEAL, NRF2 p.T80I
[17] = Homo sapiens, MES-SA, MESSA, UTERINE/ENDOMETRIAL, NRF2 p.E79K
[18] = Homo sapiens, MRC5, MRC-5, NORMAL LUNG FIBROBLAST
[19] = Homo sapiens, NCI-H23, NCI-H23, LUNG, KEAP1 p.Q193H
[20] = Homo sapiens, NCI-H358, NCI-H358, LUNG, no KEAP1/NRF2 mutation listed
[21] = Homo sapiens, NCI-H460, NCI-H460, LUNG, KEAP1 p.D236H
[22] = Homo sapiens, NCI-H1792, NCI-H1792, LUNG, KEAP1 p.G462W
[23] = Homo sapiens, NCI-H1944, NCI-H1944, LUNG, KEAP1 p.R320L
[24] = Homo sapiens, NCI-H2030, NCI-H2030, LUNG, KEAP1 p.V568F
[25] = Homo sapiens, NCI-H2122, NCI-H2122, LUNG, KEAP1 p.A170_R204del
[26] = Homo sapiens, NCI-H2126, NCI-H2126, LUNG, KEAP1 p.R320L
[27] = Homo sapiens, NCI-H2228, NCI-H2228, LUNG, NRF2 p.G31A
[28] = Homo sapiens, RL95-2, RL95-2, UTERINE/ENDOMETRIAL, KEAP1 p.R116W
[29] = Homo sapiens, SHP77, SHP-77, LUNG, KEAP1 p.D294Y
[30] = Homo sapiens, UMC-11, UMC11, LUNG, KEAP1 p.G571A
[31] = JHOC-5, UTERINE/ENDOMETRIAL, KEAP1 p.R483H
[32] = MORCPR, LUNG, KEAP1 p.K551SfsTer44
[33] = NCI-H322, NCI-H322, LUNG, KEAP1 p.R460S
[34] = NCI-H1435, NCI-H1435, LUNG, KEAP1 p.R413L
[35] = NCI-H1688, NCI-H1688, LUNG, KEAP1 p.G511S
[36] = NCI-H2066, NCI-H2066, LUNG, KEAP1 p.P361L
[37] = NCI-H2110, NCI-H2110, LUNG, KEAP1 p.G429C
[38] = NCI-H2172, NCI-H2172, LUNG, KEAP1 p.G430C
[39] = OE21, OE21, ESOPHAGEAL, NRF2 p.D318H
[40] = RERF-LC-Sq1, RERFLCSQ1, LUNG, NRF2 p.D29H
[41] = RMUG-S, UTERINE/ENDOMETRIAL, KEAP1 p.G603V
[42] = SW579, SW579, HEAD & NECK, NRF2 p.D77Y

Cc1sc(NC(=O)Cc2ccc(F)c(OCCOCCNc3ccc4c(c3)CN(C3CCC(=O)NC3=O)C4=O)c2)nc1-c1ccc2c(c1)CCN2C(=O)c1cncn1C (stereo not drawn) [Cpd. No. 30, 2-(3-(2-(2-((2-(2,6-dioxopiperidin-3-yl)-1-oxoisoindolin-5-yl)amino)ethoxy)ethoxy)-4-fluorophenyl)-N-(5-methyl-4-(1-(1-methyl-1H-imidazole-5-carbonyl)indolin-5-yl)thiazol-2-yl)acetamide]
IC50 [1]: 4.1 nM
IC50 [2]: 2.8 nM
IC50 [3]: 4.8 nM
IC50 [4]: < 1.5 nM
IC50 [5]: 8.7 nM
IC50 [6]: 12.8 nM
IC50 [7]: 4.3 nM
IC50 [8]: < 1.5 nM
IC50 [9]: 11.3 nM
IC50 [10]: 397 nM
IC50 [11]: 302 nM
IC50 [12]: 2.9 nM
IC50 [13]: 31.9 nM
IC50 [14]: 8.8 nM
IC50 [15]: 4 nM
IC50 [16]: 1.7 nM
IC50 [17]: 4.7 nM
IC50 [18]: 12.5 nM
IC50 [19]: 126 nM
IC50 [20]: 11.6 nM
IC50 [21]: 15500 nM
IC50 [22]: 6.5 nM
IC50 [23]: 25.2 nM
IC50 [24]: 169 nM
IC50 [25]: 54.9 nM
IC50 [26]: 98.9 nM
IC50 [27]: 12.6 nM
IC50 [28]: 2.8 nM
IC50 [29]: 29.6 nM
IC50 [30]: 5.8 nM
IC50 [31]: 11.5 nM
IC50 (LK-2, LUNG, NRF2 p.E79K): < 1.5 nM
IC50 [32]: 3.4 nM
IC50 [33]: 3.9 nM
IC50 (NCI-H920, LUNG, KEAP1 p.G603V): 191 nM
IC50 [34]: 38 nM
IC50 [35]: < 2 nM
IC50 [36]: 4.4 nM
IC50 [37]: 5.1 nM
IC50 [38]: 5.9 nM
IC50 [39]: 156 nM
IC50 [40]: 12.6 nM
IC50 [41]: 21.5 nM
IC50 (SNU2535, LUNG, NRF2 p.D29H): 8.9 nM
IC50 [42]: 6.7 nM

Cc1sc(NC(=O)Cc2cccc(OCCOCCNc3cccc4c3C(=O)N(C3CCC(=O)NC3=O)C4=O)c2)nc1-c1ccc2c(c1)CCN2C(=O)C1CC1 (stereo not drawn) [Cpd. No. 34, N-(4-(1-(cyclopropanecarbonyl)indolin-5-yl)-5-methylthiazol-2-yl)-2-(3-(2-(2-((2-(2,6-dioxopiperidin-3-yl)-1,3-dioxoisoindolin-4-yl)amino)ethoxy)ethoxy)phenyl) acetamide]
IC50 [1]: 30.1 nM
IC50 [2]: 20.4 nM
IC50 [3]: 86.7 nM
IC50 [4]: 10.6 nM
IC50 [5]: 66.7 nM
IC50 [6]: 54.8 nM
IC50 [7]: 20.6 nM
IC50 [8]: 4.4 nM
IC50 [9]: 152 nM
IC50 [10]: > 30000 nM
IC50 [11]: > 30000 nM
IC50 [12]: 20.3 nM
IC50 [13]: > 30000 nM
IC50 [14]: 33.6 nM
IC50 [15]: 45.8 nM
IC50 [16]: 13.2 nM
IC50 [17]: 35.1 nM
IC50 [18]: 35.4 nM
IC50 [19]: > 30000 nM
IC50 [20]: 44.9 nM
IC50 [21]: > 30000 nM
IC50 [22]: 41.7 nM
IC50 [23]: 107 nM
IC50 [24]: 224 nM
IC50 [25]: > 30000 nM
IC50 [26]: > 30000 nM
IC50 [27]: 57.4 nM
IC50 [28]: 20.9 nM
IC50 [29]: 22.5 nM
IC50 [30]: 12.2 nM
IC50 [31]: 54.2 nM
IC50 (LK-2, LUNG, NRF2 p.E79K): 9.4 nM
IC50 [32]: 33.2 nM
IC50 [33]: 23.9 nM
IC50 (NCI-H920, LUNG, KEAP1 p.G603V): > 30000 nM
IC50 [34]: 150 nM
IC50 [35]: 13 nM
IC50 [36]: 15.9 nM
IC50 [37]: 42.1 nM
IC50 [38]: 14.2 nM
IC50 [39]: > 30000 nM
IC50 [40]: 85.6 nM
IC50 [41]: 18.1 nM
IC50 (SNU2535, LUNG, NRF2 p.D29H): > 30000 nM
IC50 [42]: 73.1 nM
